Results on 52 compounds are retold here after ChEMBL document CHEMBL1133906, “Leishmanicidal activity of some stilbenoids and related heterocyclic compounds” (Bioorg Med Chem Lett, 2001).

Assay type in all cases: functional, organism-based
Assay [1] concerns Leishmania braziliensis. The assay can be described thus: In vitro inhibitory activity against Leishmania braziliensis (M2903).
The subject of assay [2] is Leishmania amazonensis. In words: In vitro inhibitory activity against Leishmania amazonensis (PH8).
For assay [3], the system named is Leishmania donovani. The assay can be described thus: In vitro inhibitory activity against Leishmania donovani (PP75).

The structures appear in SMILES notation. Values after ≈ are worked out from the molar mass of the structure shown.

In general, IC50 refers to the concentration that inhibits the measured activity by half. Consider `CCN(CC)C(=O)c1ccccc1C(=O)C(=O)c1ccc(OC)cc1`, for which the IC50 in assay [1], in assay [2] and in assay [3] was 75 µg/mL (≈ 221 µM) each time.

On to `OC1(Cc2ccc3c(c2)OCO3)c2ccccc2C2=NCCN21` (stereo unspecified), for which the IC50 in assay [1], in assay [2] and in assay [3] was not below 100 µg/mL throughout.

As to `Oc1nnc(Cc2ccc(Cl)cc2)c2ccccc12`, the 50% inhibitory concentration (IC50) in assay [1], in assay [2] and in assay [3] was not below 100 µg/mL each time.

With `COc1ccc(/C=C2\OC(=O)c3ccccc32)cc1`, the IC50 in assay [1], in assay [2] and in assay [3] was not below 100 µg/mL throughout.

In the case of `O=C(C(=O)c1ccccc1C(=O)N1CCCCC1)c1ccc2c(c1)OCO2`, the half-inhibitory concentration (IC50) in assay [1], in assay [2] and in assay [3] was not below 100 µg/mL throughout.

As for `COc1ccc(CCc2cc(OC(C)=O)cc(OC)c2C(=O)O)cc1`, the half-inhibitory concentration (IC50) in assay [1], in assay [2] and in assay [3] was 62 µg/mL (≈ 180 µM) in each case.

Take `O=C(C(=O)c1ccccc1C(=O)N1CCCCC1)c1ccc(Cl)cc1`: the IC50 came to 52 µg/mL (≈ 146 µM) in assay [1], 25 µg/mL (≈ 70.3 µM) in assay [2] and 28 µg/mL (≈ 78.7 µM) in assay [3].

With `O=c1[nH]nc(Cc2ccccc2)c2ccccc12`, the IC50 in assay [1], in assay [2] and in assay [3] was not below 100 µg/mL in each case.

As for `O=C1O/C(=C\c2ccc(Cl)cc2)c2ccccc21`, the figures for the IC50 in assay [1], in assay [2] and in assay [3] were not below 100 µg/mL, not below 100 µg/mL and 52 µg/mL (≈ 203 µM), respectively.

Consider `COc1ccc(CC2(O)c3ccccc3C3=NCCN32)cc1OC` (stereo unspecified), for which the IC50 in assay [1], in assay [2] and in assay [3] was not below 100 µg/mL throughout.

`COc1ccc(C(=O)C(=O)c2ccccc2C(=O)N2CCCC2)cc1`: the half-inhibitory concentration (IC50) in assay [1], in assay [2] and in assay [3] was not below 100 µg/mL throughout.

On to `COc1ccc(CC2(O)c3ccccc3C3=NCCCN32)cc1` (stereo unspecified), for which the half-maximal inhibitory concentration (IC50) in assay [1], in assay [2] and in assay [3] was not below 100 µg/mL in each case.

`Oc1nnc(Cc2ccc3c(c2)OCO3)c2ccccc12`: the IC50 in assay [1], in assay [2] and in assay [3] was not below 100 µg/mL each time.

`OC1(Cc2ccc3c(c2)OCO3)c2ccccc2C2=NCCCN21` (stereo unspecified): the IC50 in assay [1], in assay [2] and in assay [3] was not below 100 µg/mL throughout.

Consider `OC1(Cc2ccc(Cl)cc2)c2ccccc2C2=NCCN21` (stereo unspecified), for which the IC50 in assay [1], in assay [2] and in assay [3] was not below 100 µg/mL each time.

Take `COc1ccc(CCc2cc(O)cc(OC)c2)cc1`: the IC50 in assay [1], in assay [2] and in assay [3] was not below 100 µg/mL each time.

`COc1ccc(Cc2nnc(O)c3ccccc23)cc1`: the IC50 in assay [1], in assay [2] and in assay [3] was not below 100 µg/mL each time.

As for `O=C(Cc1ccc(Cl)cc1)c1ccccc1C(=O)N1CCCCC1`, the IC50 in assay [1], in assay [2] and in assay [3] was not below 100 µg/mL throughout.

For the compound `OC1(Cc2ccc(Cl)cc2)c2ccccc2C2=NCCCN21` (stereo unspecified), the IC50 in assay [1], in assay [2] and in assay [3] was not below 100 µg/mL throughout.

As for `COc1ccc(Cc2nn(C)c(=O)c3ccccc23)cc1OC`, the IC50 in assay [1], in assay [2] and in assay [3] was not below 100 µg/mL each time.

In the case of `COc1ccc(CC(=O)c2ccccc2C(=O)N2CCCCC2)cc1OC`, the IC50 in assay [1], in assay [2] and in assay [3] was not below 100 µg/mL each time.

Consider `COc1cc(Cc2nn(C)c(=O)c3ccccc23)cc(OC)c1OC`, for which the IC50 in assay [1], in assay [2] and in assay [3] was not below 100 µg/mL throughout.

On to `COc1ccc(CC2(O)c3ccccc3C3=NCCN32)cc1` (stereo unspecified), for which the IC50 in assay [1], in assay [2] and in assay [3] was not below 100 µg/mL each time.

Consider `O=C(Cc1ccc2c(c1)OCO2)c1ccccc1C(=O)N1CCCCC1`, for which the IC50 in assay [1], in assay [2] and in assay [3] was not below 100 µg/mL in each case.

With `COc1ccc(C(=O)C(=O)c2ccccc2C(=O)N2CCCCC2)cc1OC`, the 50% inhibitory concentration (IC50) in assay [1], in assay [2] and in assay [3] was not below 100 µg/mL throughout.

Take `COc1ccc(/C=C2\OC(=O)c3ccccc32)cc1OC`: the IC50 in assay [1], in assay [2] and in assay [3] was not below 100 µg/mL in each case.

As for `OC1(Cc2ccccc2)c2ccccc2C2=NCCCN21` (stereo unspecified), the IC50 in assay [1], in assay [2] and in assay [3] was 45 µg/mL (≈ 162 µM) in each case.

For the compound `COc1cc(C(=O)C(=O)c2ccccc2C(=O)N2CCCCC2)cc(OC)c1OC`, the IC50 in assay [1] came to 52 µg/mL (≈ 126 µM); in assay [2] it was 28 µg/mL (≈ 68.1 µM); in assay [3], 52 µg/mL (≈ 126 µM).

On to `Cn1nc(Cc2ccc3c(c2)OCO3)c2ccccc2c1=O`, for which the half-maximal inhibitory concentration (IC50) in assay [1], in assay [2] and in assay [3] was not below 100 µg/mL each time.

`COc1cc(CC2(O)c3ccccc3C3=NCCCN32)cc(OC)c1OC` (stereo unspecified): the IC50 in assay [1], in assay [2] and in assay [3] was not below 100 µg/mL each time.

Turning to `COc1ccc(CC2(O)c3ccccc3C3=NCCCN32)cc1OC` (stereo unspecified), the IC50 in assay [1], in assay [2] and in assay [3] was not below 100 µg/mL throughout.

In the case of `COc1cc(Cc2nnc(O)c3ccccc23)cc(OC)c1OC`, the IC50 in assay [1], in assay [2] and in assay [3] was not below 100 µg/mL in each case.

For the compound `OC1(Cc2ccccc2)c2ccccc2C2=NCCN21` (stereo unspecified), the IC50 in assay [1], in assay [2] and in assay [3] was 60 µg/mL (≈ 227 µM) each time.

`COc1ccc(Cc2nn(C)c(=O)c3ccccc23)cc1`: the IC50 in assay [1], in assay [2] and in assay [3] was not below 100 µg/mL throughout.

In the case of `COc1ccc(C(=O)C(=O)c2ccccc2C(=O)N2CCCCC2)cc1`, the IC50 in assay [1] was 80 µg/mL (≈ 228 µM); in assay [2], not below 100 µg/mL; in assay [3] it was 80 µg/mL (≈ 228 µM).

In the case of `COc1ccc(Cc2nnc(O)c3ccccc23)cc1OC`, the IC50 in assay [1], in assay [2] and in assay [3] was not below 100 µg/mL throughout.

As to `COc1ccc(CC(=O)c2ccccc2C(=O)N2CCCCC2)cc1`, the IC50 in assay [1], in assay [2] and in assay [3] was not below 100 µg/mL each time.

Consider `COc1ccc(CCc2cc(O)cc(OC)c2C(=O)O)cc1` [ISONOTHOLAENIC ACID], for which the IC50 in assay [1], in assay [2] and in assay [3] was 32 µg/mL (≈ 106 µM) in each case.

In the case of `COC(=O)c1c(CCc2ccc(OC)cc2)cc(O)cc1OC`, the 50% inhibitory concentration (IC50) in assay [1], in assay [2] and in assay [3] was not below 100 µg/mL in each case.

As for `COc1ccc(CCc2cc(O)cc(OC)c2C(=O)N2CCCCC2)cc1`, the IC50 in assay [1] came out at 10 µg/mL (≈ 27.1 µM); in assay [2], 7 µg/mL (≈ 18.9 µM); in assay [3], 7 µg/mL (≈ 18.9 µM).

As to `Cn1nc(Cc2ccccc2)c2ccccc2c1=O`, the IC50 in assay [1], in assay [2] and in assay [3] was not below 100 µg/mL in each case.

Regarding `O=C(Cc1ccccc1)c1ccccc1C(=O)N1CCCCC1`, the IC50 in assay [1], in assay [2] and in assay [3] was not below 100 µg/mL each time.

As to `COc1cc(/C=C2\OC(=O)c3ccccc32)cc(OC)c1OC`, the IC50 is not below 100 µg/mL in assay [1], 52 µg/mL (≈ 166 µM) in assay [2] and not below 100 µg/mL in assay [3].

For `O=C1O/C(=C\c2ccccc2)c2ccccc21`, the IC50 in assay [1], in assay [2] and in assay [3] was 45 µg/mL (≈ 202 µM) throughout.

Regarding `COc1ccc(/C=C2/c3ccccc3C(=O)N2NC(C)(C)C)cc1`, the 50% inhibitory concentration (IC50) in assay [1], in assay [2] and in assay [3] was not below 100 µg/mL each time.

Turning to `COc1cc(CC(=O)c2ccccc2C(=O)N2CCCCC2)cc(OC)c1OC`, the 50% inhibitory concentration (IC50) in assay [1] came to 7 µg/mL (≈ 17.6 µM); in assay [2] it was 10 µg/mL (≈ 25.2 µM); in assay [3], 20 µg/mL (≈ 50.3 µM).

As to `N=C(N)c1ccc(OCCCCCOc2ccc(C(=N)N)cc2)cc1` [PENTAMIDINE], the IC50 in assay [1], in assay [2] and in assay [3] was 1.3 µg/mL (≈ 3.82 µM) in each case.

Consider `Cn1nc(Cc2ccc(Cl)cc2)c2ccccc2c1=O`, for which the IC50 in assay [1] is not below 100 µg/mL; in assay [2], not below 100 µg/mL; in assay [3] it was 64 µg/mL (≈ 225 µM).

Take `O=C1O/C(=C\c2ccc3c(c2)OCO3)c2ccccc21`: the IC50 in assay [1], in assay [2] and in assay [3] was not below 100 µg/mL throughout.

On to `COc1ccc(CC2(O)c3ccccc3C(=O)N2NC(C)(C)C)cc1` (stereo unspecified), for which the IC50 in assay [1], in assay [2] and in assay [3] was not below 100 µg/mL in each case.

Take `O=C(C(=O)c1ccccc1C(=O)N1CCCCC1)c1ccccc1`: the half-maximal inhibitory concentration (IC50) in assay [1], in assay [2] and in assay [3] was 75 µg/mL (≈ 233 µM) each time.

Consider `COc1cc(CC2(O)c3ccccc3C3=NCCN32)cc(OC)c1OC` (stereo unspecified), for which the IC50 in assay [1], in assay [2] and in assay [3] was not below 100 µg/mL throughout.
